Key:
[1] = test system: allergic reactions; experiment: PCA test (antiallergic activity, rats); type: in vivo; conditions: for ED50: Rattus norvegicus, iv; for ED50 / percental activity in the PCA test: rats
Procedure: (§1) The tests were carried out by the PCA test-method (Ovary: J. Immun. 81, 355, 1958) and the Church-test (British J. Pharm. 46, 56-66, 1972; Immunology 29, 527-534, 1975) and as comparing substance disodium chromoglycate is used. The test is carried out in rats.

[2] = test system: allergic symptoms; conditions: orally; background statement; cited from earlier work
[3] = test system: histamine; experiment: Released histamine in vitro (antiallergic tests incl. Church-test); type: cell-based, rats; conditions: Rattus norvegicus; read-out: Released histamine in vitro, ED50
Procedure: as §1

SMILES	ED50 [1] [µmol/kg]	route dependence / oral activity ([1]; oral versus i.v., words)	oral activity of antiasthmatic agent [2]	percental activity in the PCA test ([1]; single i.v. dose of 10 μmole/kg) [%]	percental activity in the PCA test ([1]; single i.v. dose of 320 μmole/kg) [%]	IC50 [3] [µM]
O=C(O)c1cc(=O)c2c(OCC(O)COc3cccc4oc(C(=O)O)cc(=O)c34)cccc2o1 [disodium chromoglycolate, reference compound]	1	effective only when administered intravenously	not active orally	–	–	–
CC1CC=C(Nc2ccccc2)c2ncc(C(=O)O)c(=O)n21 (stereo not shown) [Example 1, 9-(phenyl-amino)-6-methyl-4-oxo-6,7-dihydro-4H-pyrido[1,2-a]pyrimidine-3-carboxylic acid]	1.3	–	–	60	100	12.3
